According to patent US9408813B2, “Small-molecule inhibitors of dengue virus proteases” (THE BOARD OF REGENTS OF THE UNIVERSITY OF TEXAS SYSTEM, priority 2013, dated 2016):
Like-named read-outs stand apart in the source and are kept apart here.

Molecular target: T1, DENV NS2B-NS3 protease (Dengue virus type 2, UniProt P29990)
T1 construct: plasmid construct CF40-Gly-NS3pro185; made in house; host or cells: E. coli
Test: NS2B-NS3 protease steady-state kinetic inhibition assay (Boc-GRR-AMC substrate, Dynafit global fit)
Format: biochemical, DEN2V (dengue virus serotype 2)
Details: 100 nM NS2B-NS3, cleavage buffer pH 9.5, 25° C., two inhibitor concentrations
Procedure: The DEN2V protease (plasmid construct CF40-Gly-NS3pro185 (Li et al., The Journal of Biological Chemistry, 280, 28766-28774, 2005)) was expressed in E. coli largely following the previously described protocol (Li et al., The Journal of Biological Chemistry, 280, 28766-28774, 2005), although cell growth was continued for 6 hrs at 25° C. following addition of 0.4 mM IPTG (isopropyl-D-thiogalactopyranoside). Purification was as described previously (Li et al., The Journal of Biological Chemistry, 280, 28766-28774, 2005) using metal affinity chromatography. Purified, concentrated NS2B-NS3pro was stored at −80° C. in cleavage buffer (200 mM Tris pH 9.5, 20% glycerol). The activity of the dengue protease was not impacted by a freeze/thaw cycle (data not shown).
Small molecules identified by virtual screening as potential DEN2V protease inhibitors were tested for inhibition activity using NS2B-NS3 protease steady-state kinetic assays as described previously (Li et al., The Journal of Biological Chemistry, 280, 28766-28774, 2005). Briefly, compounds identified in virtual screening experiments were received from established chemical vendors and tested for solubility at 10 mM in DMSO and upon 100-fold dilution from DMSO into cleavage buffer (i.e., 100 μM final compound concentration in 1% DMSO). […] Sequential 10-fold serial dilutions were used to determine the limits of solubility in cleavage buffer as necessary.
Preliminary single-point inhibition assays (Li et al., The Journal of Biological Chemistry, 280, 28766-28774, 2005) were used to check the inhibition activity of compounds using 100 nM NS2B-NS3 and 100 μM substrate Boc-GRR-AMC in cleavage buffer for 30 minutes at 25° C. Fluorescence measurements (lem=465 nm, lex=380 nm) were performed in duplicate on a Fluorolog FL3-22 spectrofluorometer (Horiba Jobin Yvon) and corrected for compound absorption and emission. […] Two inhibitor concentrations were tested. Fluorescence measurements were recorded at 5 minutes intervals from 0 to 30 minutes; fluorescence intensities were converted to AMC product concentrations using calibration curves established with each compound concentration. Each kinetic study was performed in duplicate, and all experiments were repeated three times to ensure all measured parameters were reproducible in independent experiments. Initial velocities at each substrate concentration were calculated from linear curve fits of AMC production per time. The program Dynafit (Biokin, Watertown, Mass.) (Kuzmic, Anal. Biochem., 237, 260-273, 1996) was used to determine Michalen-Menten inhibition model and kinetic parameters that produced the best global fits to the measured velocity versus substrate kinetic data.
These compounds were advanced to detailed kinetic inhibition assays to determine mechanisms of inhibition and inhibition constants. All experiments were performed using two different inhibitor concentrations and a no inhibitor control. Kinetic parameters and inhibition constants were calculated using a generalized Michaelis-Menten model (FIG. 4) and global fitting to all collected velocity versus substrate concentration data (Table 1). […] Further study will be required to determine whether a particular mechanism of inhibition might be advantageous in regard to efficacy against virus replication and/or delay of escape mutants.

[1] = read-out: Inhibition constant Ki1 (competitive component, binding to enzyme)
[2] = read-out: Inhibition constant Ki2 (binding to enzyme-substrate ES complex)
[3] = Inhibition constant Ki1 (competitive component, binding to enzyme)
[4] = read-out: Inhibition constant Ki3 (binding to ES2 complex)

T1 sequence (P29990 1476-1653): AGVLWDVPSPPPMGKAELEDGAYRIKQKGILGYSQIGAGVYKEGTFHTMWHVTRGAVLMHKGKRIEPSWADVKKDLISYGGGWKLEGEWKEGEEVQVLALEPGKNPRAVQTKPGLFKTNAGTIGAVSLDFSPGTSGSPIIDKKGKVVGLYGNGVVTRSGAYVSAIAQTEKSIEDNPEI

SMILES	Ki [1] [µM]	Ki [2] [µM]	also measured
c1ccc2c(-c3nnc(-c4ccc5nccnc5c4)o3)cccc2c1 [ZINC00156657]	95	45	–
NS(=O)(=O)c1cccc(-c2ccc([C@H]3Nc4ccccc4-c4nc5ccccc5n43)o2)c1 [ZINC01032664]	–	56	–
Cn1c(=O)c2cc3ccccc3nc2c2c(=O)n(-c3ccccc3)c(=O)n(-c3ccccc3)c21 [ZINC01042004]	–	28	–
c1ccc(CSc2nnc3nc4c5ccccc5c5ccccc5c4nn23)cc1 [ZINC03120327]	–	–	Ki [3]: 42 µM; Ki (Inhibition constant Ki2 (binding to enzyme-substrate ES complex)): 21 µM
O=C1[C@H]2CSC3(C(=O)c4ccccc4C3=O)N2C(=O)[C@H]2CSC3(C(=O)c4ccccc4C3=O)N12 [ZINC03129319]	–	–	Ki [3]: 92 µM; Ki (Inhibition constant Ki3 (binding to ES2 complex)): 20 µM
O=C1Cc2ccc(F)cc2C[C@@H]1C1=Cc2ccc(F)cc2CC1 [ZINC04321905]	85	–	–
Cc1nn(-c2ccccc2)nc1C(=O)Nc1nnc(Sc2ccnc3cc(Cl)ccc23)s1 [ZINC08647752]	60	–	Ki [4]: 14 µM
O=C(NNC(=NS(=O)(=O)c1ccccc1)NNC(=O)c1cccc(Cl)c1)c1cccc(Cl)c1 [ZINC12339756]	–	–	Ki [4]: 64 µM
Cc1ccc(-n2ncc3c2CC(C)(C)C[C@@H]3NC(=O)c2cn(C)c3ccccc3c2=O)cc1 [ZINC12702527]	288	421	–
O=C(Nc1cccc(-c2nnc(Cc3ccc4c(c3)OCO4)o2)c1)Nc1ccc2c(c1)CCC2 [ZINC21359030]	–	4	–
Cc1ccc(S(=O)(=O)Nc2ccc(Cn3cnc(-c4nc(-c5cccc(C)c5)no4)c3)cc2)cc1 [ZINC32974777]	106	21	–
Cc1ccn2c(=O)cc(COc3cc(NC(=O)Nc4ccc5c(c4)OCCO5)ccc3C)nc2c1 [ZINC33068105]	39	4	–
